The source of these data is patent US20260335277A1, “CHLOROTONIL DERIVATIVES” (priority 2023, published 2026).

SMILES strings stand for the structures. Converted amounts (≈) assume the structure as drawn. Bounds are passed on as bounds.

The test system of data set [1] is clinical isolates of S. aureus. The data set is described as follows: MIC 50/90 profiling in multidrug-resistant clinical isolates. In kind it is cell-based. Particulars: Staphylococcus aureus; S. aureus clinical isolates (n = 100). As to the method:
(§1) Minimal inhibitory concentration (MIC) of the compounds in the present invention was determined using broth microdilution performed according to EUCAST guidelines (ISO20776-1:2019). S. aureus ATCC29213 and E. faecalis ATCC29212 served as quality control strains.
(§2) Activity of dehalogenil against multidrug-resistant clinical isolates of S. aureus (n=100) and Enterococcus spp. […] Compared to the standard of care (linezolid, daptomycin and tigecyclin), dehalogenil MIC90 was lowered in both pathogens by 20-40-fold with unimodal distribution indicating no pre-existing resistances.

In another data set the test system is E. faecium. The data set is described as above. In kind it is cell-based. As to conditions: Enterococcus faecium. As to the method: as §1, §2
A further data set deals with S. aureus USA300LAC. The data set is described as follows: S. aureus blood infection (sepsis) model. Type of data set: in vivo, mouse (CD-1). As to conditions: 60 mg/kg. The procedure: Dehalogenil was further tested in a Staphylococcus blood infection (sepsis) model, alongside linezolid as reference compound. Mice were infected using S. aureus USA300LAC (10^8 CFU/animal) and subsequently treated with a daily total of 5, 10 or 25 mg/kg SC dehalogenil, split into two doses (8 h interval, BID regimen) until 3 days post infection.
Mice were infected intravenously using S. aureus USA300LAC (10^8 CFU/mice). Compounds were administered twice daily starting day 0 until day 3, with the daily total dose indicated. Curves were compared via Mantel-Cox test (Prism), with ***: p<0.001 and **: p<0.01.

Data set [2] concerns chloroquine-sensitive laboratory strains of Plasmodium falciparum. Particulars: cited from earlier work.
Data set [3] relates to chloroquine-resistant laboratory strains of Plasmodium falciparum. Particulars: cited from earlier work.
A further data set can be described thus: Hemolysis. In kind it is cell-based. The procedure: (§3) Complementing the toxicity profiling, ADME properties of the lead dehalogenil were determined. This had not been possible for the first generation frontrunner ChB1-Epo2 or the natural product ChA because of their poor limit of detection. […] Across species (mouse, rat, human), metabolic stability is high while plasma stability is moderate. Besides, no hemolysis and no inhibition of the metabolically important enzyme CYP3A4 was observed by both dehalogenil and ChA. Plasma protein binding (PPB) is >99.4% in all species.

In the next data set the test system is P. falciparum. The data set is described as follows: P. falciparum infection models, per oral. Type of data set: in vivo. As to conditions: 50 mg/kg per oral. An excerpt: (§4) In addition, standard in vitro ADME parameters cannot be uniquely determined since chlorotonil A concentrations in these assays were always below the limit of detection. […] Both compounds (chlorotonil A and B1-Epo2) could be administered at low doses intravenously, however, only when dissolved in a vehicle which is not suitable for further development as part of preclinic studies as it contained high amounts of organic solvents (10 vol. % ethanol, 5 vol. % DMSO).

The next data set is described as follows: Aqueous solubility. In kind it is physicochemical. As to the method:
as §3

The test system of data set [4] is mature gametocytes (stages IV and V). The data set is described as follows: Activity against mature gametocytes (stage IV-V), bioluminescence assay. In kind it is cell-based, P. falciparum. As to conditions: Plasmodium falciparum. The procedure:
Activity against gametocytes was determined using an in vitro bioluminescence assay as described previously (doi.org/10.1371/journal.pone.0035019).

For the next data set, the system named is CYP3A4. The data set is described as follows: Inhibition of CYP3A4. In kind it is in vitro ADME. The procedure:
as §3

For another data set, the system named is zebrafish larvae. The data set is described as follows: Toxicity in zebrafish larvae (MTC / IC50). In kind it is in vivo. The procedure:
For toxicity screening, zebrafish larvae were exposed three days post fertilization and monitored for 48 h until five days post fertilization. All malformations and pathophysiological phenotypes were noted and used to determine the inhibitory concentration (IC50) of the respective derivative against zebrafish larvae. The selectivity index (SI) was then calculated using the IC50 and the MIC of either S. aureus or P. falciparum 3D7.

A further data set relates to Plasmodium falciparum. Particulars: cited from earlier work.
Data set [5] has as its system clinical isolates from Gabon. Particulars: read-out: median IC50; cited from earlier work.
A short description of data set [6]: Toxicity in mouse models after multiple PO dosing. In kind it is in vivo. Particulars: multiple PO dosing at 100 mg/kg.
From the text: as §4

Data set [7] relates to mature gametocytes (stages IV and V). As to conditions: stage IV-V gametocytes; cited from earlier work.
The subject of another data set is S. epidermidis DSM-28765. Put plainly: MIC testing (broth microdilution, EUCAST). Type of data set: cell-based. As to conditions: Staphylococcus epidermidis, DSM28765, S. epidermidis DSM-28765; read-out: MIC S. epiderm. The procedure:
as §1
On the technique in general: Dilution methods test growth across graded concentrations, often in twofold steps.

For data set [8], the system named is S. aureus N315 (methicillin-resistant, MRSA). Put plainly: MIC testing (broth microdilution, EUCAST). Type of data set: cell-based. Particulars: Staphylococcus aureus, MRSA. As to the method:
as §1

In the next data set the test system is parasitemia. As to conditions: mice, 4 day suppression test, 36-110 mg/kg oral, pilot experiments; cited from earlier work.
The test system of data set [9] is chloroquine-resistant P. falciparum. The data set is described as follows: Drug sensitivity assay, asexual stages (HRP2 ELISA, 72 h). Type of data set: cell-based. As to conditions: Plasmodium falciparum; chloroquine-resistant P. falciparum Dd2; mean ± SD. As to the method: (§5) Drug sensitivity assays of asexual plasmodium stages were carried out as described before (doi: 10.1128/AAC.49.8.3575-3577.2005). Briefly, the drugs were distributed in a 3-fold serial dilution in 96-well plates. Synchronized ring-stage parasites were diluted to a parasitemia of 0.05% with O Rh+ erythrocytes incomplete culture medium and seeded at a hematocrit of 1.5% in a total volume of 225 μL per well. Thereafter, the plates were incubated at 5% CO2, 5% O2, at 37° C. for 72 h, then they were frozen and thawed three times. The growth inhibition of P. falciparum was measured through an enzyme-linked immunosorbent assay (ELISA) for histidine-rich protein 2 (HRP2) using a microplate reader.
(ELISA stands for enzyme-linked immunosorbent assay.)

In data set [10] the test system is drug-sensitive P. falciparum 3D7. Described as above. In kind it is cell-based. Particulars: Plasmodium falciparum, mean ± SD, read-out: chloroquine IC50. The procedure:
as §5

The conditions of data set [11]: cited from earlier work.

`CC(=O)NC[C@H]1CN(c2ccc(N3CCOCC3)c(F)c2)C(=O)O1` [linezolid]: the MIC50 (in data set [1]; with E. faecium (E. faecium (n = 98))) was 4 µg/mL (≈ 11.9 µM) in each case. Further, the MIC90 was determined as 8 µg/mL (≈ 23.7 µM) in data set [1] and 4 µg/mL (≈ 11.9 µM) against E. faecium (E. faecium (n = 98)). Besides, the MIC in the data set on E. faecium (read-out: MIC range) lay within 0.5 to 64 µg/mL (≈ 1.48 to 190 µM). In addition, the survival result with S. aureus USA300LAC is given as “survival of all animals”.

With `CC1=C[C@@H](C)[C@H]2[C@@H]3C(=O)C(Cl)(Cl)C(=O)[C@H](C)C(=O)O[C@@H](C)/C=C/C=C\[C@@H](C)[C@@H]3C=C[C@@H]2C1` [ChA, reference compound], the IC50 is 9 nM in [2], 18 nM in data set [3], 9.5 ± 3 nM in data set [4] and 15.2 nM in data set [5]. The hemolysis result in the data set “Hemolysis” is “no hemolysis”. Besides, in the data set with P. falciparum, the “efficacy in P. falciparum infection model (cure)” value is given as “full cure”. For the same molecule, the water solubility entry in the data set “Aqueous solubility” is “poor water solubility”. In addition, the “inhibition of CYP3A4” value with CYP3A4 was “no inhibition”. Besides, the “toxicity effects in zebrafish larvae models” value with zebrafish larvae (comparative studies) was “cardiotoxic, hepatotoxic and developmental toxicity effects”. Besides, the “IC50 in zebrafish larvae” value with zebrafish larvae (exposed 3 days post fertilization, monitored 48 h) came to 1.09 µM. Further, in the data set with Plasmodium falciparum, the “development of resistant parasites in vitro by drug pressure” value is given as “not possible to develop resistant parasites in vitro”. In addition, the “toxicity in mouse models” value in [6] was “general adverse effects, and cardio- and hepatotoxicity”. Also, the “gametocytocidal activity compared with other tested compounds” value in data set [7] is recorded as “superior activity to all other tested compounds in this assay, besides epoxomicin”. The MIC (in the data set on S. epidermidis DSM-28765; in [8]) was 0.05 µg/mL (≈ 0.104 µM) throughout. Further, in the data set on parasitemia, the reduced parasitemia is given as over 90%.

For the molecule `CCN(CC)CCCC(C)Nc1ccnc2cc(Cl)ccc12` (stereo not shown) [Chloroquine], the IC50 in data set [9] amounted to 226 ± 76 nM; in data set [10] it was 7.4 nM.

As for `CC[C@H](C)[C@H](NC(=O)[C@H]([C@@H](C)CC)N(C)C(C)=O)C(=O)N[C@H](C(=O)N[C@@H](CC(C)C)C(=O)[C@@]1(C)CO1)[C@@H](C)O` [epoxomicin], the “toxic effects in vivo” value in data set [11] is reported as “shows toxic effects in vivo”.

The MIC50 is the lowest concentration that inhibits either 50% of growth or 50% of the strains tested, depending on the study. A lower MIC50 goes with higher susceptibility. The MIC90 is the lowest concentration that inhibits either 90% of growth or 90% of the strains tested, depending on the study. In general, MIC refers to the lowest concentration that inhibits growth of the organism. The IC50 is the point on the concentration scale where inhibition reaches its midpoint.
